The source of these data is EP4692114A1, “CALCITONIN ANALOGUE, AND DERIVATIVE THEREOF AND USE THEREOF” (Hangzhou Sciwind Biosciences Co., Ltd., priority 2023, dated 2024).

pEC50: −log10 of the molar value. *1 amine or outer side, *2 acyl side, *3 side chain or, on linkers, in order; H or OH if unused. Where a SMILES comes first, the peptide text is derived from it. The star is where a group is joined. C20 diacid = O=C(O)CCCCCCCCCCCCCCCCCCC(=O)*; γGlu = O=C(O)[C@H](CCC(=O)[*:2])N[*:1]

One may read the pEC50 as −log10 of the EC50, conventionally taken in molar units.

For data set [1] the following is noted: background statement; cited from earlier work.
Data set [2] is described as follows: Heat accelerated stability assay under a neutral condition. The following applies: pH about 7.4, 40°C; for Changes in characteristics or properties, 0d / Changes in characteristics or properties, 7d / Characteristics or properties on Day 26: 1 mg/mL, phosphate; for Purity Change% (7d-0d): purity from reversed phase chromatography-214 nm, Day 7 vs Day 0. The data set is classed as physicochemical. The gist of the method: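 Peptide (1 mg/mL) with sodium dihydrogen phosphate (1.42 mg/mL) in water, pH ~7.4, was sterile-filtered and stored at 40 °C, sampled on days 7 and 26. After centrifugation, concentration and purity (target/total peak area) were measured by reversed-phase HPLC at 214 and 280 nm, water/0.05% TFA to acetonitrile gradient, 25 °C column.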

A further data set addresses T1, human amylin receptors (Homo sapiens, UniProt O60896+P30988).
T1 sequence (P30988 25-474): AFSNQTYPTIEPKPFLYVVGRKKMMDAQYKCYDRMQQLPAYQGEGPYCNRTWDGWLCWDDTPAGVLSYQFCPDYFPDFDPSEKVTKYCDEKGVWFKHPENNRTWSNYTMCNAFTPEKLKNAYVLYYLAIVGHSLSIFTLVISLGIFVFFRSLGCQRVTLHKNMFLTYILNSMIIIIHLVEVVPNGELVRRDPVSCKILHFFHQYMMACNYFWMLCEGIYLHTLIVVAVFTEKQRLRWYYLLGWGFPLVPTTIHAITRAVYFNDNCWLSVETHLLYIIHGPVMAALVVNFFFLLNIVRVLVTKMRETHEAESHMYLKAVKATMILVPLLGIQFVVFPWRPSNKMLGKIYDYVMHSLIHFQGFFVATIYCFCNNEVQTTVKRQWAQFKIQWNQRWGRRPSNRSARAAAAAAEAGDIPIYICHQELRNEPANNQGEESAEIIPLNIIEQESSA
T1 sequence (O60896 24-148 partner): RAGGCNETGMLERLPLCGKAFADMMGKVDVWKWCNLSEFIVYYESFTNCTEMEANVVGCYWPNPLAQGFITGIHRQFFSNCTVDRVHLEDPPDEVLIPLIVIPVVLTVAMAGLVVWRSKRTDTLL
Nature of the data set: Luciferase assay of amylin (amylin receptor/CRE-luc cell line).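 Further: agonist potency from luminescence of cAMP response element-driven luciferase, EC50 derived from a standard curve of signal versus compound concentration.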 The following applies: stably transfected amylin receptor/CRE-luc CHO cells (CHO-K1/Gal5/AMY3), 24 hours incubation, luciferase readout. The data set is classed as cell-based.

Data set [3] can be described thus: Study of weight change and food consumption in rats. The data set is classed as in vivo, SD (Sprague Dawley) rats. The note with it: SD rats, subcutaneous, 10 nmol/kg; for Effect on reducing food intake: accumulated food intake recorded every 24 hours (FIGs. 7 and 9); for Effect on reducing body weight: recorded every 24 hours (FIGs. 6 and 8). An excerpt:
SD (Sprague Dawley) rats weighing 200-250 g were used for this study. The rats were received at least 10-14 days before the study began such that they could accommodate to the experimental environment. After arrival, they were exposed to a reversed light/dark cycle (i.e., lights switched off in daytime and on in nighttime) for two weeks and were individually housed for the first week so as to ensure high data accuracy and test sensitivity. Throughout the acclimation and experiment period, the rats had free access to food and water. 5-8 rats were assigned to each testing group for the derivatives and were subcutaneously administered the derivatives at a dose of 10 nmol/kg or a vehicle, and the dosing timepoint was recorded for each group. After dosing, the rats were put back into cages where they were housed and could have access to food and water. Food consumption and weight change of the rats were recorded online or manually every 24 hours.

Data set [4] can be described thus: Heat accelerated stability assay for compatibility testing (M8 with M51). The data set is classed as physicochemical. The note with it: M8 1 mg/ml with M51 1 mg/ml, pH about 7.4, one-month heat accelerated assay, without and with excipients (phenol, 1,2-dihydroxypropane). On the procedure:
The calcitonin analogue M8 (1 mg/ml), the GLP-1 receptor agonist M51 (1 mg/ml), and sodium dihydrogen phosphate (1.42 mg/ml) were mixed and dissolved in ultrapure water, and 5.5 mg/ml phenol and 14 mg/ml 1,2-dihydroxypropane were further added for the testing group with excipients. After pH was adjusted to about 7.4 with hydrochloric acid/sodium hydroxide, accelerated stability assays were performed according to the method of Example 3. […] Thus, they had the potential to be developed as a co-formulation.

Text for human amylin receptors: The objective of this assay is to test the activity or potency of calcitonin analogues or derivatives on human amylin receptors in vitro using a luciferase assay.
Using the standard protocol, CHO-K1/Gal5/AMY3 cells (purchased from GenScript, with the calcitonin receptor and the receptor activity modifying peptide (RAMP) constructed already) were transfected with a plasmid containing a luciferase expression cassette driven by multiple copies of cAMP response elements (CREs). The cells were cultured in an F12 medium containing 200 ug/mL Zeocin, 2 ug/mL puromycin, 100 ug/mL hygromycin, and 400 ug/mL G418 to afford a stably transfected amylin receptor/CRE-luc cell line.
To each well of a white 96-well plate was added 50 µL of the tested sample solution at a respective concentration.
The stably transfected amylin receptor/CRE-luc CHO cells were resuspended in the growth medium at a certain density, and 50 µL of the cell suspension was added at a density of about 20000 cells per well to the white 96-well plate containing the tested sample solution. After incubation of 24 hours at 37°C and 5% CO2, 100 µL of a Luciferase substrate was added to each well, incubated for 3 minutes, and finally was tested for luminescence on SpectraMax L (Molecular Devices) with the software SoftMax Pro 7.0.3 GxP. A standard curve was plotted using the fluorescent intensities for calculation of EC50.

As to `CC(C)C[C@H](NC(=O)[C@H](CCCCN)NC(=O)CNC(=O)[C@H](CC(C)C)NC(=O)[C@@H](NC(=O)[C@@H]1CSSC[C@H](N)C(=O)N[C@@H](CO)C(=O)N[C@@H](CC(N)=O)C(=O)N[C@@H](CC(C)C)C(=O)N[C@@H](CO)C(=O)N[C@@H]([C@@H](C)O)C(=O)N1)C(C)C)C(=O)N[C@@H](CO)C(=O)N[C@@H](CCC(N)=O)C(=O)N[C@@H](CCC(=O)O)C(=O)N[C@@H](CC(C)C)C(=O)N[C@@H](Cc1c[nH]cn1)C(=O)N[C@@H](CCCCN)C(=O)N[C@@H](CC(C)C)C(=O)N[C@@H](CCC(N)=O)C(=O)N[C@H](C(=O)N[C@@H](Cc1ccc(O)cc1)C(=O)N1CCC[C@H]1C(=O)N[C@@H](CCCNC(=N)N)C(=O)N[C@H](C(=O)N[C@@H](CC(N)=O)C(=O)N[C@H](C(=O)NCC(=O)N[C@@H](CO)C(=O)NCC(=O)N[C@H](C(=O)N1CCC[C@H]1C(N)=O)[C@@H](C)O)[C@@H](C)O)[C@@H](C)O)[C@@H](C)O` [D2, salmon calcitonin], in data set [1], the half-life entry is on record as “less than two hours”.

`CC(C)C[C@H](NC(=O)[C@H](CCCNC(=N)N)NC(=O)CNC(=O)[C@H](CC(C)C)NC(=O)[C@@H](NC(=O)[C@H](C)NC(=O)[C@@H](NC(=O)[C@H](CO)NC(=O)[C@H](CC(C)C)NC(=O)[C@H](CCC(N)=O)NC(=O)[C@H](CO)NC(=O)[C@H](C)NC(=O)CC[C@H](NC(=O)CCCCCCCCCCCCCCCCCCC(=O)O)C(=O)O)[C@@H](C)O)C(C)C)C(=O)N[C@@H](CO)C(=O)N[C@@H](CCC(=O)O)C(=O)N[C@@H](CCC(=O)O)C(=O)N[C@@H](CC(C)C)C(=O)N[C@@H](Cc1c[nH]cn1)C(=O)N[C@@H](CCCNC(=N)N)C(=O)N[C@@H](CC(C)C)C(=O)N[C@@H](CCC(N)=O)C(=O)N[C@@H](CC(=O)O)C(=O)N[C@@H](Cc1ccc(O)cc1)C(=O)N1CCC[C@H]1C(=O)N[C@@H](CCCNC(=N)N)C(=O)N[C@H](C(=O)N[C@@H](CC(=O)O)C(=O)N[C@H](C(=O)NCC(=O)N[C@@H](CO)C(=O)NCC(=O)N[C@@H](CO)C(=O)N1CCC[C@H]1C(N)=O)C(C)C)[C@@H](C)O` [M9] ({C20 diacid-γGlu}-ASQLSTAVLGRLSEELHRLQDYPRTDVGSGSP-NH2): in data set [2], the “Changes in characteristics or properties, 0d” value is on record as “Clear”; the “Characteristics or properties on Day 26” value is recorded as “clear solution”; the “Purity Change% (7d-0d)” value is “No change (a decrease of less than 1% from the initial value to the detected content is denoted as "no change")”. The “Changes in characteristics or properties, 7d” value in data set [2] (7d) was “Clear”. In addition, in data set [2] (Day 7 vs Day 0, reversed phase chromatography), the “Concentration change (7d-0d)/%” value is “No change (a decrease of less than 1% from the initial value to the detected content is denoted as "no change")”. The molecule also showed a negative logarithm of the EC50 (pEC50) on human amylin receptors of 10.77. For the same molecule, in data set [3], the “Effect on reducing food intake” value was “particularly effective” and the “Effect on reducing body weight” value is listed as “particularly effective”.

For the molecule `CC(C)C[C@H](NC(=O)[C@H](CCCNC(=N)N)NC(=O)CNC(=O)[C@H](CC(C)C)NC(=O)[C@@H](NC(=O)[C@H](C)NC(=O)[C@@H](NC(=O)[C@H](CO)NC(=O)[C@H](CC(C)C)NC(=O)[C@H](CCC(N)=O)NC(=O)[C@H](CO)NC(=O)[C@H](C)NC(=O)CC[C@H](NC(=O)CCCCCCCCCCCCCCCCCCC(=O)O)C(=O)O)[C@@H](C)O)C(C)C)C(=O)N[C@@H](CO)C(=O)N[C@@H](CC(=O)O)C(=O)N[C@@H](CCC(=O)O)C(=O)N[C@@H](CC(C)C)C(=O)N[C@@H](Cc1c[nH]cn1)C(=O)N[C@@H](CCCNC(=N)N)C(=O)N[C@@H](CC(C)C)C(=O)N[C@@H](CCC(N)=O)C(=O)N[C@@H](CC(=O)O)C(=O)N[C@@H](Cc1ccc(O)cc1)C(=O)N1CCC[C@H]1C(=O)N[C@@H](CCCNC(=N)N)C(=O)N[C@H](C(=O)N[C@@H](CC(=O)O)C(=O)N[C@H](C(=O)NCC(=O)N[C@@H](CO)C(=O)NCC(=O)N[C@@H](CO)C(=O)N1CCC[C@H]1C(N)=O)C(C)C)[C@@H](C)O` [M8] ({C20 diacid-γGlu}-ASQLSTAVLGRLSDELHRLQDYPRTDVGSGSP-NH2), in data set [2], the “Changes in characteristics or properties, 0d” value is given as “Clear”; the “Characteristics or properties on Day 26” value is “clear solution”; the “Purity Change% (7d-0d)” value is reported as “No change (a decrease of less than 1% from the initial value to the detected content is denoted as "no change")”. Also, the “Changes in characteristics or properties, 7d” value in data set [2] (7d) is given as “Clear”. The “Reversed phase chromatography 7d change” value in data set [2] (Table 8, purity change, 7d) is given as “No change (a decrease of less than 1% from the initial value to the detected content is denoted as "no change")”. In addition, the “Reversed phase chromatography 26d change” value in data set [2] (Table 8, purity change, 26d) is recorded as -0.12%. The “Concentration change on Day 26 as compared to Day 0” value in data set [2] (Day 26 vs Day 0) is “less than 2%”. At human amylin receptors, this molecule gave a pEC50 of 10.77. Besides, the “Change in the spectra of reversed phase chromatography (compatibility)” value in data set [4] is recorded as “only a little change”. Moreover, in data set [3], the “Effect on reducing food intake” value was “prominent effect” and the “Effect on reducing body weight” value is “prominent effect”.
